Data reported in US20080008771A1, “Nitric Oxide Dioxygenase Inhibitors” (priority 2004, published 2008).
“And” between values parts separate entries of the source, which are not always exact repeats. Equal values may be shown once. Read-outs that look alike come from different tables or passages of the source.

Legend:
[1] = test system: A549 cells; assay: NO consumption (NO metabolism) by A549 cells; type: cell-based, human; settings: for Inhibition of NO metabolic activity, A549: porphyrin 100 μM; for activity at 20 µM: agent 20 μM
Description: . The results are show in Table II.

[2] = test system: microsomal NO metabolism (Caco-2 microsomes); settings: for IC50: read-out: IC50, microsomal NO metabolism
Experimental: NO metabolism by cell fractions was assayed in 100 mM Na-Hepes, pH 7.8, 0.25 M sucrose, 1 mM EDTA and 1 mM EGTA (Sucrose Buffer) containing 15 μM Cu,ZnSOD and 100 μM NADPH. Cell fractions were added with a 50 μl Hamilton syringe to give a total of 100-750 μg protein. For determination of O2 dependence of microsomal NO metabolism, the 2 ml reaction was sparged with N2 for 10 minutes to remove O2, and O2 was depleted from microsomal membranes by stirring membranes under a stream of N2 in a rubber septum-sealed tube on ice. Alternatively, residual O2 was removed by incubating the reaction mix with 16 units glucose oxidase, 1 mM glucose and 260 units catalase for 5 minutes prior to adding NO and microsomes. O2 was added from O2 saturated buffer to achieve various O2 concentrations.
Data represent the average of two or more two independent trials.
NO consumption by Caco-2 microsomes was assayed as previously described.

[3] = molecular target: T1, NADPH-cytochrome P450 oxidoreductase (CYPOR) (Homo sapiens, UniProt P16435); assay: CYPOR (cytochrome c reductase) activity
T1 sequence (P16435 1-677): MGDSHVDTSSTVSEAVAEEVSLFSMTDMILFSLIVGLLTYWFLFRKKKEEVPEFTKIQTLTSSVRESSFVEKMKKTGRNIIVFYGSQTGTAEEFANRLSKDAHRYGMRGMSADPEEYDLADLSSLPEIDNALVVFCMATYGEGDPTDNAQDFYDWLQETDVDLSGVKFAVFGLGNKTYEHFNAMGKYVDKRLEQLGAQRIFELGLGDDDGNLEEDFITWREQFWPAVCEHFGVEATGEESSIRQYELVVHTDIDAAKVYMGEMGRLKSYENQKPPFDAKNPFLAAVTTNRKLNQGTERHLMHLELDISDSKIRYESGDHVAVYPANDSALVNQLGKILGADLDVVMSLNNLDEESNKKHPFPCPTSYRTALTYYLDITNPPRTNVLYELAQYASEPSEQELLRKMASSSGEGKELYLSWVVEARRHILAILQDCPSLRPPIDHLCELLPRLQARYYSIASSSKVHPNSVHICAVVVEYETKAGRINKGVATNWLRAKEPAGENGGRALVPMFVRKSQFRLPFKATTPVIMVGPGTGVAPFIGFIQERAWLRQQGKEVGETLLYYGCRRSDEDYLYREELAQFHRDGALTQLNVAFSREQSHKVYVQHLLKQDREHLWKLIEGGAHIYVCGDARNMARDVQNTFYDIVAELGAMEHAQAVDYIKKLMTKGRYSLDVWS
Experimental: The incubations contained 120 μl of Sucrose Buffer and 30 μl of PBS (8.1 mM Na2HPO4, 1.1 mM KH2PO4, 138 mM NaCl and 2.7 mM KCl, pH 7.4) introduced with IgG or BSA.

[4] = test system: Caco-2 cells; assay: NO consumption (NO metabolism) by Caco-2 cells; settings: for % Activity, Caco-2: agent 100 μM, 15 min incubation, 100% = 25.4±1.4 nmol NO per minute per 107 cells
Experimental: (§1) Initial rates of NO consumption were measured at 1 μM NO unless otherwise stated, and all rates were corrected for background rates of NO decomposition. A milliunit of activity is defined as the amount metabolizing 1 nanomol NO per min. […] Rotenone (0.5 μM) was included in CO inhibition assays to block respiration and O2 depletion. […] Cell permeabilization was monitored by the loss of NO metabolic activity.
(§2) Error bars represent the SD of three independent trials.
(§3) In addition to cyanide and CO, heme-binding imidazoles, a panel of substrate-inhibitors of cytochrome P450s, inhibitors of the NO-binding heme oxygenases, and free radical scavengers were surveyed for effects on NO metabolism by Caco-2 and A549 cells. All agents were used at concentrations showing minimal cytotoxicity as defined by <5% decrease in trypan blue exclusion following 15 min exposure (data not shown). Caco-2 and A549 cells were grown, harvested and assayed for NO consumption activity following a 15 min incubation in 2 ml DPBS containing 5 mM glucose and 100 μg/ml cycloheximide with the indicated agent as previously described. Data represent the mean ±SD of three independent exposures.

[5] = molecular target: S. cerevisiae flavohemoglobin (Saccharomyces cerevisiae, UniProt P39676); assay: biochemical
Description: (§4) The specific activities of the E. coli, A. eutrophus and S. cerevisiae NOD were 185, 90 and 105 NO heme^−1 s^−1, respectively.

[6] = molecular target: T2, A. eutrophus flavohemoglobin (Cupriavidus necator, UniProt P39662)
Description: as §4

[7] = test system: Caco-2 cells
Experimental: as §1, §2, §3

[8] = molecular target: T2, A. eutrophus flavohemoglobin; assay: biochemical; settings: Apparent Ki
Description: as §4

[9] = molecular target: T3, E. coli flavohemoglobin (NOD) (Escherichia coli, UniProt P24232); assay: biochemical
Description: as §4

[10] = molecular target: flavohemoglobins; assay: CO binding to ferrous hemes of flavohemoglobins; settings: read-out: dissociation equilibrium constants, ferrous hemes of flavohemoglobins
[11] = molecular target: flavohemoglobins (NOD); assay: CO inhibition of flavohemoglobin NOD activities; type: biochemical; settings: read-out: Ki, competitive inhibition of NOD activities with respect to O2
[12] = molecular target: heme oxygenase; settings: cited from earlier work
[13] = test system: S. cerevisiae; assay: NO consumption (NOD) activity within S. cerevisiae; type: cell-based, Saccharomyces cerevisiae; settings: 0 μM to about 20 μM miconazole
Description: Error bars represent the standard deviation of the average of three independent trials.

[14] = test system: S. cerevisiae parental strain BY4742; assay: Growth of S. cerevisiae under NO atmosphere; type: cell-based, Saccharomyces cerevisiae; settings: 5 μM miconazole, 960 ppm NO, 21% O2
Experimental: At the time indicated by the arrow, cultures were exposed to an atmosphere containing 960 ppm NO (<2 μM NO in solution) in a 21% O2/N2 balance (lines 2 and 4) or were maintained under an atmosphere of 21% O2 balanced with N2 (lines 1 and 3).
At the time indicated by the arrow, cultures were either maintained fewer than 21% O2 balanced with N2 (lines 1 and 3) or were exposed to 960 ppm NO in the 21% O2/N2-balanced atmosphere (lines 2 and 4). Cultures were grown and exposed to gases.

[15] = molecular target: T3, E. coli flavohemoglobin (NOD)
Description: as §4

[16] = Homo sapiens, A549, 0.25 h, 15 min incubation

T2 sequence (P39662 whole entry): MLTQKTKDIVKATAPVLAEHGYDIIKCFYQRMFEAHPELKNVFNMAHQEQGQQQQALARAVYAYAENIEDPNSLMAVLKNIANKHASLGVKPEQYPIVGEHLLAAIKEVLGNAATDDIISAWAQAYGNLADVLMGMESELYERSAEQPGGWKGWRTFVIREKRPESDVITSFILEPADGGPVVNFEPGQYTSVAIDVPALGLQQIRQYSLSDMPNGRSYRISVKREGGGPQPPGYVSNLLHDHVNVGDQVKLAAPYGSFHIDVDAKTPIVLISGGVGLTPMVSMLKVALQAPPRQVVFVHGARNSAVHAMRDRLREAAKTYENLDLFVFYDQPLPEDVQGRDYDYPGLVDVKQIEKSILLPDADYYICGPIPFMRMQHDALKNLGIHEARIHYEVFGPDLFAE
T3 sequence (P24232 whole entry): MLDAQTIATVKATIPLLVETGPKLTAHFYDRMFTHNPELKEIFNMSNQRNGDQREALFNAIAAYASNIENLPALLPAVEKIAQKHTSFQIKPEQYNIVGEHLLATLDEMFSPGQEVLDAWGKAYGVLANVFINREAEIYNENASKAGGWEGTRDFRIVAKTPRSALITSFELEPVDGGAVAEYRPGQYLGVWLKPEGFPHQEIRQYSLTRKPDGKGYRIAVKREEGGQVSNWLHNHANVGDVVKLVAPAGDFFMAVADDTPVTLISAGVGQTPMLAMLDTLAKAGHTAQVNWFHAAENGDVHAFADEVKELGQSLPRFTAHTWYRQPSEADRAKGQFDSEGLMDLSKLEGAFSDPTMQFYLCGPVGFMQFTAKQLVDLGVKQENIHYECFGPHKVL
Chain of S. cerevisiae flavohemoglobin (P39676 whole entry): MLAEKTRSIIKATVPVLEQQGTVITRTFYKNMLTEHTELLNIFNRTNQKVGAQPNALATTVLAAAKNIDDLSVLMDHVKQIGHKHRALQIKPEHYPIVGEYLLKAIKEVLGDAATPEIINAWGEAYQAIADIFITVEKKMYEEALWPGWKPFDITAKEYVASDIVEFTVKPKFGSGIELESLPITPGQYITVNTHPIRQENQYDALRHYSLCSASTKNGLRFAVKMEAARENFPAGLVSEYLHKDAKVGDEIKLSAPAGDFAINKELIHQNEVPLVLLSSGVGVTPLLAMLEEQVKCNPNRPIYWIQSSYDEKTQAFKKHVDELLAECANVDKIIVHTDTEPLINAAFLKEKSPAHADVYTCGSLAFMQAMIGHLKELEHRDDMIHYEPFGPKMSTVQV

With `COC(=O)[C@@H](N)CCCNC(=N)N[N+](=O)[O-]` [L-NAME, N ω-nitro-L-arginine methyl ester] the activity at 1000 µM ([1]; Homo sapiens, A549, 0.25 h, agent 1 mM, 15 min incubation) was 101 ± 2.9% and the “% Activity, microsomal NO metabolism” value ([2]; inhibitor 1 mM) was 96.7 ± 6.0%.

In the case of `C=CC1=C(C)c2cc3[n-]c(cc4[n-]c(cc5nc(cc1n2)C(C)=C5C=C)c(C)c4CCC(=O)O)c(CCC(=O)O)c3C.[Zn+2]` [Zn2+-protoporphyrin, Zn(II)-protoporphyrin IX], the “Effect on cytochrome c reduction by microsomal membranes and purified CYPOR” value [3] is reported as “progressive inhibition of cytochrome c reduction”, the “Inhibition of NO metabolic activity, A549” value [1] is reported as “about 40%” and the “Effect of porphyrins on microsomal NO metabolism” value [2] is reported as “inhibited microsomal NO metabolism”.

In the case of `Cc1c(C)c2c(c(C)c1O)CC[C@@](C)(CCC[C@H](C)CCC[C@H](C)CCCC(C)C)O2` [α-tocopherol], the “% Activity, microsomal NO metabolism” value ([2]; inhibitor 100 μM) is reported as 106.9 ± 3.4%.

In the case of `c1ccc2c(c1)[I+]c1ccccc1-2` [DPI, Diphenyleneiodonium], the “Loss of microsomal NO metabolic activity” value [2] is reported as “Seventy-five percent”.

For `Nc1ccc(S(=O)(=O)Nc2ccnn2-c2ccccc2)cc1` [sulfaphenazole], the “% Activity, Caco-2” value [4] was 97.1 ± 3.0%.

For `C=CCSCC=C` [diallyl sulfide], the “% Activity, Caco-2” value [4] was 98.1 ± 1.7%.

In the case of `CC(=O)N1CCN(c2ccc(OCC3COC(Cn4ccnc4)(c4ccc(Cl)cc4Cl)O3)cc2)CC1` (stereo not drawn) [ketoconazole], the Ki [5] is reported as > 100 µM, the “Fraction inhibited as percentage of total activity, first (major) phase” value ([6]; belongs to the first-phase Ki) is reported as “(˜75%)” and the “Fraction inhibited as percentage of total activity, second (minor) phase” value ([6]; belongs to the second-phase Ki) is reported as “(˜25%)”. The “% Activity, Caco-2” value [7] was 22.3 ± 4.1%, the “% Activity, microsomal NO metabolism” value ([2]; 100 µM) was 25.9 ± 2.6% and the IC50 [2] was 10 µM. It also gave a Ki ([8]; first (major) phase) of 0.7 µM, a Ki ([8]; second (minor) phase) of 25 µM and a Ki [9] of 5 µM.

With `[C-]#[O+]` [CO, carbon monoxide] the Kd [10] was < 0.7 µM, the Ki [11] was ~1 µM and the “Inhibition of microsomal NO consumption” value ([2]; 10 μM CO, 20 μM O2, 1 μM NO) was > 50%. For the same compound, the “Inhibition of NO metabolism by CO, microsomes” value ([2]; CO:O2 ratio 0.75) was “about 75%”, the “Inhibition of NO metabolism by CO, cells” value ([4]; CO:O2 ratio 0.4) was “about 75%” and the Ki ([4]; read-out: Ki(CO), competitive inhibition of cellular NO metabolism, 5 μM CO, 12.5 μM O2, competitive with O2) was ~3 µM and 3 µM.

In the case of `C=CC1=C(C)c2cc3[nH]c(cc4nc(cc5[nH]c(cc1n2)c(C)c5CCC(=O)O)C(CCC(=O)O)=C4C)c(C)c3C=C` [protoporphyrin, Protoporphyrin IX], the “Effect on cytochrome c reduction by microsomal membranes and purified CYPOR” value ([3]; 20 μM, data not shown) is reported as “progressive inhibition of cytochrome c reduction” and the “Effect of porphyrins on microsomal NO metabolism” value [2] is reported as “inhibited NO metabolism to a significant (p<0.05), albeit lesser, extent”.

For `O=c1c(O)c(-c2ccc(O)c(O)c2)oc2cc(O)cc(O)c12` [quercetin], the “% Activity, microsomal NO metabolism” value ([2]; inhibitor 100 μM) was 84.1 ± 4.4%.

With `Cc1nc2c([nH]1)c(=O)n(C)c(=O)n2Cc1ccco1` [furafylline] the activity at 10 µM ([1]; Homo sapiens, A549, 0.25 h, agent 10 μM, 15 min incubation) was 98.2 ± 3.1%.

In the case of “Sn(IV)-protoporphyrin IX [Sn4+-protoporphyrin]”, the “Inhibition of NO metabolic activity, A549” value [1] is given as “no effect” and the Ki [12] is given as < 0.1 µM.

For `Clc1ccc(COC(Cn2ccnc2)c2ccc(Cl)cc2Cl)c(Cl)c1` (stereo not drawn) [miconazole], the “Effect on NOD activity in S. cerevisiae” value [13] was “inhibition of NOD activity”, the “Effect on growth of S. cerevisiae together with NO” value [14] was “synergistically inhibited growth of S. cerevisiae” and the activity at 20 µM [1, 16] was 38.2 ± 5.9%. For the same compound, the “% Activity, microsomal NO metabolism” value ([2]; 100 µM) was 17.0 ± 0.0% and the IC50 ([2]; Caco-2 microsomes) was 20 µM.

For `Clc1ccc(COC(Cn2ccnc2)c2ccc(Cl)cc2Cl)cc1` (stereo not drawn) [econazole], the activity at 20 µM [1, 16] was 36.2 ± 4.9%, the “% Activity, microsomal NO metabolism” value ([2]; 100 µM) was 15.3 ± 0.0% and the IC50 ([2]; Caco-2 microsomes) was 10 µM.

With `C=CCS[S+]([O-])CC=C` (stereo not drawn) [Allicin, diallyl thiosulfinate] the “Effect on isolated E. coli NOD” value [15] was “inactivates the isolated E. coli NOD”.
